Laboratory results from US7192746B2, “α-Isomaltosyltransferase, process for producing the same and use thereof” (Kabushiki Kaisha Hayashibara Seibutsu Kagaku Kenkyujo, priority 2000, dated 2007).

Experiments:
[1] = Amino carbonyl reaction with polypeptone; assay type: physicochemical; conditions: 10% (w/v) with 5% (w/v) polypeptone, 120° C., minus control
Experimental: Four milliliter aliquots of the resulting solution were placed in glass test tubes, sealed, and heated at 120° C. for 30 to 90 min. After allowing to stand for cooling at ambient temperature, each of the resulting solution was measured for coloration degree to examine their amino carbonyl reactivity. In parallel, as a control, a solution with only polypeptone was provided and similarly treated as above. The coloration degree was evaluated based on the level of the absorbance, measured in a cell with 1-cm light pass at a wavelength of 480 nm, minus that of the control.

[2] = Amino carbonyl reaction with glycine; assay type: physicochemical; conditions: 10% (w/v) with 1% (w/v) glycine, pH 7.0, 100° C.
Experimental: Four milliliter aliquots of the resulting solution were placed in glass test tubes, sealed, and heated at 100° C. for 30 to 90 min. After allowing to stand for cooling at ambient temperature, each of the resulting solutions was measured for coloration degree to examine their amino carbonyl reactivity. The coloration degree was evaluated based on the absorbance in a cell with 1-cm light pass at a wavelength of 480 nm.

[3] = Reducing power on the Somogyi-Nelson's method; assay type: physicochemical
[4] = tested on: α-isomaltosyl-transferring enzyme from Bacillus globisporus C11; experiment: Specificity to transferring acceptor; assay type: biochemical; conditions: panose as saccharide donor, 10 units/g substrate, 3.2% (w/v), 30° C., pH 6.0, 24 hours
How it was run: (§1)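 Scoring is presence or absence of a transfer product, detected by HPLC for tri- or larger saccharides and by GLC for smaller ones. Reactions: 3.2% (w/v) saccharide with panose as donor in equal amount, 10 units/g substrate of purified or partially purified enzyme, pH 6.0, 30 °C, 24 h.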

[5] = tested on: α-isomaltosyl-transferring enzyme from Arthrobacter ramosus S1; experiment: Specificity to transferring acceptor; assay type: biochemical; conditions: panose as saccharide donor, 10 units/g substrate, 3.2% (w/v), 30° C., pH 6.0, 24 hours
How it was run: as §1

[6] = tested on: α-isomaltosyl-transferring enzyme from Arthrobacter globiformis A19; experiment: Specificity to transferring acceptor; assay type: biochemical; conditions: partially purified enzyme, panose as saccharide donor, 10 units/g substrate, 3.2% (w/v), 30° C., pH 6.0, 24 hours
How it was run: as §1

[7] = tested on: α-isomaltosyl-transferring enzyme from Bacillus globisporus C9; experiment: Specificity to transferring acceptor; assay type: biochemical; conditions: panose as saccharide donor, 10 units/g substrate, 3.2% (w/v), 30° C., pH 6.0, 24 hours
How it was run: as §1

[8] = tested on: α-isomaltosyl-transferring enzyme from Bacillus globisporus N75; experiment: Specificity to transferring acceptor; assay type: biochemical; conditions: panose as saccharide donor, 10 units/g substrate, 3.2% (w/v), 30° C., pH 6.0, 24 hours
How it was run: as §1

| Structure (SMILES) | Coloration degree (A480 nm) ([1]; heating time 0 min) | Coloration degree (A480 nm) ([1]; heating time 30 min) | Coloration degree (A480 nm) ([1]; heating time 60 min) | Coloration degree (A480 nm) ([1]; heating time 90 min) | Coloration degree (A480 nm) ([2]; heating time 0 min) | Coloration degree (A480 nm) ([2]; heating time 30 min) | Coloration degree (A480 nm) ([2]; heating time 60 min) | Coloration degree (A480 nm) ([2]; heating time 90 min) | Reducing power [3] | Product of transferring reaction, Enzyme of Strain C11 [4] | Product of transferring reaction, Enzyme of Strain S1 [5] | Product of transferring reaction, Enzyme of Stain A19 [6] | Product of transferring reaction, Enzyme of Strain C9 [7] | Product of transferring reaction, Enzyme of Strain N75 [8] |
| --- | --- | --- | --- | --- | --- | --- | --- | --- | --- | --- | --- | --- | --- | --- |
| OCC1OC2OCC3O[C@H](O[C@H]4C(O)C(CO)OC(OCC5O[C@H](O[C@@H](C1O)C2O)C(O)C(O)[C@@H]5O)C4O)C(O)C(O)[C@@H]3O (stereo partly drawn) [Cyclotetrasaccharide, cyclo{→6)-α-D-glucopyranosyl-(1→3)-α-D-glucopyranosyl-(1→6)-α-D-glucopyranosyl-(1→3)-α-D-glucopyranosyl-(1→}] | 0.00 | 0.00 | 0.00 | 0.00 | 0.00 | 0.00 | 0.00 | 0.00 | below a detectable level | – | – | – | – | – |
| OC[C@@H](O)[C@@H](O[C@H]1O[C@H](CO)[C@@H](O)[C@H](O)[C@H]1O)[C@H](O)[C@@H](O)CO [Maltitol, maltitol] | – | – | – | – | – | – | – | – | – | + (a saccharide-transferred product was formed in an amount of over one percent but below 10% to the total sugars) | + (a saccharide-transferred product was formed in an amount of over one percent but below 10% to the total sugars) | + (a saccharide-transferred product was formed in an amount of over one percent but below 10% to the total sugars) | + (a saccharide-transferred product was formed in an amount of over one percent but below 10% to the total sugars) | + (a saccharide-transferred product was formed in an amount of over one percent but below 10% to the total sugars) |
